Data as given in patent publication US20240226228A1, “ANTIMICROBIAL PEPTOID HAVING IMPROVED SELECTIVITY AND ANTIMICROBIAL COMPOSITION COMPRISING SAME” (priority 2021, published 2024).
In brackets after ≈: the same amount, converted by molar mass. Read-outs that look alike come from different tables or passages of the source. One block for each compound: values may come before it. *1 amine or outer side, *2 acyl side, *3 side chain or, on linkers, in order; H or OH if unused. Where a SMILES comes first, the peptide text is derived from it. Where no end group is shown, it is not given here. [ ]: non-standard residue; d: D form. Gly(N(CH2)2(3-indolyl)) = O=C(O)CNCCc1c[nH]c2ccccc12; Gly(N-CH2CH2-imidazol-4-yl) = O=C(O)CNCCc1c[nH]cn1; Nspe = C[C@H](NCC(=O)O)c1ccccc1; X1 = O=C(CN(CCCCO)[*:1])[*:2]; Nlys = NCCCCNCC(=O)O

Legend:
red blood cells = assay: Hemolysis assay; assay type: cell-based, Sprague-Dawley mouse
Protocol: To confirm cytotoxicity by the hemolytic activity of each peptoid synthesized in Example 1, hemolysis analysis was performed. The used blood was collected from a 13-week-old male Sprague-Dawley […] in a tube containing 158 UPS sodium heparin for preventing coagulation, and centrifuged at 4° C. for 10 minutes at 1,000 rpm. Afterward, the plasma was carefully removed, red blood cells were washed with phosphate-buffered saline (PBS: a mixed solution of 35 mM phosphate-buffered solution/150 mM NaCl, pH 7.4) three times and centrifuged at 1,000 rpm for 10 minutes. A 10% (v/v) red blood cell solution diluted in PBS was dispensed at 150 μL into a 96-well plate (microtiter plate), a peptoid solution was added at 50 μL, and 1% Triton X-100 was added. Afterward, the red blood cells were incubated at 37° C. for 1 hour, and the incubated 96-well plate was centrifuged at 1,000 rpm for 15 minutes. A supernatant was obtained and transferred to a new 96-well plate at 150 μL, and absorbance was measured using a spectrophotometer at 540 nm. Percent hemolysis may be calculated by the following Equation 1, and the corresponding results are shown in Tables 11 to 13. % Hemolysis=(A−C)/(B−C)×100 [Equation 1] In Equation 1, A is the absorbance of the peptoid solution at 540 nm, B is the absorbance of the 0.1% Triton X-100 at 540 nm, and C is the absorbance of the PBS solution at 540 nm.

S. aureus ATCC 25923 = system: S. aureus ATCC 25923
Protocol: (§1) To measure the antimicrobial activity of the peptoids synthesized in Example 1, an E. coli ATCC25922 strain as gram-negative bacteria and an S. aureus KCTC25923 strain as gram-positive bacteris, were treated with the peptoids, followed by measuring the minimum inhibitory concentration (MIC). Peptoids 1 and 2 are antimicrobial peptoids known in the art, and used as controls for comparing antimicrobial activity with a novel peptoid.
(§2) Specifically, the S. aureus KCTC25923 or E. coli ATCC25922 strain was inoculated into a Mueller Hinton Broth (MHB2) liquid medium in which cations had been adjusted in the medium, cultured at 37° C. for 18 hours, subcultured, and then incubated for 4 hours. Afterward, for each bacterial strain, an optical density (OD, 0.001) was adjusted so that the bacterial count became 2×10^5 to 5×10^5 colony-forming units (CFU) per mL, which was then diluted with a MHB2 liquid medium containing 0.02% bovine serum albumin and 0.001% acetic acid, and dispensed at 100 μL into a 96-well microplate. Using sterile water, a peptoid stock 40 times stronger than a concentration to be tested was subjected to two-fold serial dilution and assessed at six different concentrations, and the maximum value of the peptoid concentrations was 25 μM. Subsequently, the plate was incubated at 37° C. for 24 hours. Afterward, optical density (OD) values at 600 nm were measured using a microplate reader (Bio-Rad).
(§3) Each MIC value was determined as the average value of a value obtained through three independent experiments.
(§4) Referring to Table 22, to measure the antimicrobial activity of the peptoids synthesized in Example 3, an MIC was measured by treating gram-negative bacteria, that is, the E. coli ATCC25922 strain, and gram-positive bacteria, that is, the S. aureus ATCC25923 strain, with the peptoids. Here, Peptoid 1 is a conventionally known antimicrobial peptoid, and Omiganan is a derivative of indolicidin, which is an antimicrobial peptide, under clinical development, and was used as a control for comparing antimicrobial activity with the novel peptoid.

E. coli ATCC25922 = details: for antimicrobial activity (in words): E. coli and S. aureus, compared to Peptoid 1, parent peptoid or TFA salt as stated
Protocol: as §1, §2, §3, §4

[1] = Tables 11-13, 24 hours at 37° C., maximum concentration 25 μM

Compound: C[C@@H](c1ccccc1)N(CC(N)=O)C(=O)CN(CCCCN)C(=O)CN(C(=O)CN(C(=O)CN(CCCCN)C(=O)CN(C(=O)CN(C(=O)CN(CCCCN)C(=O)CN(C(=O)CN(CCCCN)C(=O)CNCCCCN)[C@@H](C)c1ccccc1)[C@@H](C)c1ccccc1)[C@@H](C)c1ccccc1)[C@@H](C)c1ccccc1)[C@@H](C)c1ccccc1 [Peptoid 49]
HC10 (red blood cells): >100/>100 μM | HC50 (red blood cells): >100/>100 μM | Hmax (100 μM) (red blood cells): 0.3 ± 0.3% | MIC S. aureus ATCC 25923 (S. aureus ATCC 25923; [1]): >25 µM

Compound: C[C@@H](c1ccccc1)N(CC(=O)N(CCCCN)CC(=O)N(CC(=O)N(CC(=O)N(CCCCN)CC(=O)N(CC(=O)N(CC(=O)N(CCCCN)CC(=O)N(CCCCN)CC(N)=O)[C@@H](C)c1ccccc1)[C@@H](C)c1ccccc1)[C@@H](C)c1ccccc1)[C@@H](C)c1ccccc1)C(=O)CN(C(=O)CNCCCCN)[C@@H](C)c1ccccc1 [Peptoid 52] (H-[Nlys][Nspe][Nspe][Nlys][Nspe][Nspe][Nlys][Nspe][Nspe][Nlys][Nlys]-NH2)
MIC S. aureus ATCC 25923 (S. aureus ATCC 25923; [1]): >25 µM

Compound: NC(=O)CN(CCc1c[nH]c2ccccc12)C(=O)CN(CCc1c[nH]c2ccccc12)C(=O)CN(CCCCO)C(=O)CN(CCc1c[nH]c2ccccc12)C(=O)CN(CCc1c[nH]c2ccccc12)C(=O)CN(CCCCO)C(=O)CN(CCc1c[nH]c2ccccc12)C(=O)CN(CCc1c[nH]c2ccccc12)C(=O)CN(CCCCO)C(=O)CN(CCc1c[nH]c2ccccc12)C(=O)CN(CCc1c[nH]c2ccccc12)C(=O)CNCCCCO [Peptoid 65] (H-[X1][Gly(N(CH2)2(3-indolyl))][Gly(N(CH2)2(3-indolyl))][X1][Gly(N(CH2)2(3-indolyl))][Gly(N(CH2)2(3-indolyl))][X1][Gly(N(CH2)2(3-indolyl))][Gly(N(CH2)2(3-indolyl))][X1][Gly(N(CH2)2(3-indolyl))][Gly(N(CH2)2(3-indolyl))]-NH2)
MIC E. coli ATCC25922 (E. coli ATCC25922; [1]): >25 µM | MIC S. aureus ATCC 25923 (S. aureus ATCC 25923; [1]): >25 µM

Compound: C[C@@H](c1ccccc1)N(CC(=O)N(CCCCO)CC(=O)N(CCc1c[nH]c2ccccc12)CC(=O)N(CCc1c[nH]c2ccccc12)CC(N)=O)C(=O)CN(CCCCO)C(=O)CN(CCCCO)C(=O)CN(C(=O)CN(C(=O)CN(CCCCO)C(=O)CN(C(=O)CN(C(=O)CNCCCCO)[C@@H](C)c1ccccc1)[C@@H](C)c1ccccc1)[C@@H](C)c1ccccc1)[C@@H](C)c1ccccc1 [Peptoid 66]
MIC E. coli ATCC25922 (E. coli ATCC25922; [1]): >25 µM | MIC S. aureus ATCC 25923 (S. aureus ATCC 25923; [1]): >25 µM

MIC E. coli ATCC25922 (E. coli ATCC25922; ATCC25922): >25 µM | MIC S. aureus ATCC 25923 (S. aureus ATCC 25923; ATCC 25923): 25 µM (≈ 46.4 µg/mL)
Compound: C[C@@H](c1ccccc1)N(CC(N)=O)C(=O)CN(CCCCN)C(=O)CN(CCCCN)C(=O)CN(C(=O)CN(C(=O)CN(CCCCN)C(=O)CN(C(=O)CN(CCc1c[nH]cn1)C(=O)CN(CCCCN)C(=O)CN(CCc1c[nH]c2ccccc12)C(=O)CN(CCc1c[nH]c2ccccc12)C(=O)CNCCCCN)[C@@H](C)c1ccccc1)[C@@H](C)c1ccccc1)[C@@H](C)c1ccccc1 [Peptoid 67] (H-[Nlys][Gly(N(CH2)2(3-indolyl))][Gly(N(CH2)2(3-indolyl))][Nlys][Gly(N-CH2CH2-imidazol-4-yl)][Nspe][Nlys][Nspe][Nspe][Nlys][Nlys][Nspe]-NH2)

MIC E. coli ATCC25922 (E. coli ATCC25922; ATCC25922): >25 µM | MIC S. aureus ATCC 25923 (S. aureus ATCC 25923; ATCC 25923): 25 µM (≈ 46.4 µg/mL)
Compound: C[C@@H](c1ccccc1)N(CC(N)=O)C(=O)CN(CCCCN)C(=O)CN(CCCCN)C(=O)CN(C(=O)CN(C(=O)CN(CCCCN)C(=O)CN(CCc1c[nH]cn1)C(=O)CN(C(=O)CN(CCCCN)C(=O)CN(CCc1c[nH]c2ccccc12)C(=O)CN(CCc1c[nH]c2ccccc12)C(=O)CNCCCCN)[C@@H](C)c1ccccc1)[C@@H](C)c1ccccc1)[C@@H](C)c1ccccc1 [Peptoid 68] (H-[Nlys][Gly(N(CH2)2(3-indolyl))][Gly(N(CH2)2(3-indolyl))][Nlys][Nspe][Gly(N-CH2CH2-imidazol-4-yl)][Nlys][Nspe][Nspe][Nlys][Nlys][Nspe]-NH2)

MIC E. coli ATCC25922 (E. coli ATCC25922; ATCC25922): 25 µM (≈ 46.4 µg/mL) | MIC S. aureus ATCC 25923 (S. aureus ATCC 25923; ATCC 25923): 25 µM (≈ 46.4 µg/mL)
Compound: C[C@@H](c1ccccc1)N(CC(N)=O)C(=O)CN(CCCCN)C(=O)CN(CCCCN)C(=O)CN(C(=O)CN(CCc1c[nH]cn1)C(=O)CN(CCCCN)C(=O)CN(C(=O)CN(C(=O)CN(CCCCN)C(=O)CN(CCc1c[nH]c2ccccc12)C(=O)CN(CCc1c[nH]c2ccccc12)C(=O)CNCCCCN)[C@@H](C)c1ccccc1)[C@@H](C)c1ccccc1)[C@@H](C)c1ccccc1 [Peptoid 69] (H-[Nlys][Gly(N(CH2)2(3-indolyl))][Gly(N(CH2)2(3-indolyl))][Nlys][Nspe][Nspe][Nlys][Gly(N-CH2CH2-imidazol-4-yl)][Nspe][Nlys][Nlys][Nspe]-NH2)

Compound: C[C@@H](c1ccccc1)N(CC(=O)N(CCCCN)CC(=O)N(CCc1c[nH]c2ccccc12)CC(=O)N(CCc1c[nH]c2ccccc12)CC(N)=O)C(=O)CN(CCCCN)C(=O)CN(CCc1c[nH]cn1)C(=O)CN(C(=O)CN(C(=O)CN(CCCCN)C(=O)CN(C(=O)CN(C(=O)CNCCCCN)[C@@H](C)c1ccccc1)[C@@H](C)c1ccccc1)[C@@H](C)c1ccccc1)[C@@H](C)c1ccccc1 [Peptoid 79, H-NLys-Nspe-Nspe-NLys-Nspe-Nspe-NHis-NLys-Nspe-NLys-NhTrp-NhTrp-NH2] (H-[Nlys][Nspe][Nspe][Nlys][Nspe][Nspe][Gly(N-CH2CH2-imidazol-4-yl)][Nlys][Nspe][Nlys][Gly(N(CH2)2(3-indolyl))][Gly(N(CH2)2(3-indolyl))]-NH2)
cytotoxicity against red blood cells / hemolysis (in words) (red blood cells): improved in toxicity | antimicrobial activity (in words) (E. coli ATCC25922): retained antimicrobial activity

Compound: C[C@@H](c1ccccc1)N(CC(=O)N(CCCCN)CC(=O)N(CCc1c[nH]c2ccccc12)CC(=O)N(CCc1c[nH]c2ccccc12)CC(N)=O)C(=O)CN(CCCCN)C(=O)CN(CCCCN)C(=O)CN(C(=O)CN(C(=O)CN(CCc1c[nH]cn1)C(=O)CN(C(=O)CN(C(=O)CNCCCCN)[C@@H](C)c1ccccc1)[C@@H](C)c1ccccc1)[C@@H](C)c1ccccc1)[C@@H](C)c1ccccc1 [Peptoid 80, H-NLys-Nspe-Nspe-NHis-Nspe-Nspe-NLys-NLys-Nspe-NLys-NhTrp-NhTrp-NH2] (H-[Nlys][Nspe][Nspe][Gly(N-CH2CH2-imidazol-4-yl)][Nspe][Nspe][Nlys][Nlys][Nspe][Nlys][Gly(N(CH2)2(3-indolyl))][Gly(N(CH2)2(3-indolyl))]-NH2)
cytotoxicity against red blood cells / hemolysis (in words) (red blood cells): improved toxicity | antimicrobial activity (in words) (E. coli ATCC25922): reduced antimicrobial activity

Compound: C[C@@H](c1ccccc1)N(CC(=O)N(CCCCN)CC(=O)N(CCc1c[nH]c2ccccc12)CC(=O)N(CCc1c[nH]c2ccccc12)CC(N)=O)C(=O)CN(CCCCN)C(=O)CN(CCCCN)C(=O)CN(C(=O)CN(C(=O)CN(CCCCN)C(=O)CN(C(=O)CN(C(=O)CNCCc1c[nH]cn1)[C@@H](C)c1ccccc1)[C@@H](C)c1ccccc1)[C@@H](C)c1ccccc1)[C@@H](C)c1ccccc1 [Peptoid 81, H-NHis-Nspe-Nspe-NLys-Nspe-Nspe-NLys-NLys-Nspe-NLys-NhTrp-NhTrp-NH2] (H-[Gly(N-CH2CH2-imidazol-4-yl)][Nspe][Nspe][Nlys][Nspe][Nspe][Nlys][Nlys][Nspe][Nlys][Gly(N(CH2)2(3-indolyl))][Gly(N(CH2)2(3-indolyl))]-NH2)
cytotoxicity against red blood cells / hemolysis (in words) (red blood cells): improved in toxicity | antimicrobial activity (in words) (E. coli ATCC25922): retained antimicrobial activity

MIC E. coli ATCC25922 (E. coli ATCC25922; ATCC25922): 12.5~25 μM
Compound: ILRWPWWPWRRK-NH2 [Omiganan, reference compound]
Hmax (100 μM) (red blood cells): 0
